Earlier results as cited in patent EP0788741B1 (priority 1996, dated 1997).

Test system: Australorbis Glabratus
Details: Public Health Report, Vol. 82, No. 9; cited from earlier work

## CCCCCCCCCCCCCN(C)C.O=C(O)C1C2CCC(O2)C1C(=O)O [mono (N,N-dimethyltridecylamine) salt of Endothall]
  concentration effective to kill Puerto Rican snails: 10 ppm

## CCCCCCCCCCCCCN(C)C.CCCCCCCCCCCCCN(C)C.O=C(O)C1C2CCC(O2)C1C(=O)O [di (N,N-dimethyltridecylamine) salt of Endothall]
  concentration effective to kill Puerto Rican snails: 5 ppm
